Results: PMC6219699 (Nuclear medicine communications, 2011)

Target: T1, human sodium/iodide symporter (hNIS) (Homo sapiens, UniProt Q92911)
T1 sequence (Q92911 1-643): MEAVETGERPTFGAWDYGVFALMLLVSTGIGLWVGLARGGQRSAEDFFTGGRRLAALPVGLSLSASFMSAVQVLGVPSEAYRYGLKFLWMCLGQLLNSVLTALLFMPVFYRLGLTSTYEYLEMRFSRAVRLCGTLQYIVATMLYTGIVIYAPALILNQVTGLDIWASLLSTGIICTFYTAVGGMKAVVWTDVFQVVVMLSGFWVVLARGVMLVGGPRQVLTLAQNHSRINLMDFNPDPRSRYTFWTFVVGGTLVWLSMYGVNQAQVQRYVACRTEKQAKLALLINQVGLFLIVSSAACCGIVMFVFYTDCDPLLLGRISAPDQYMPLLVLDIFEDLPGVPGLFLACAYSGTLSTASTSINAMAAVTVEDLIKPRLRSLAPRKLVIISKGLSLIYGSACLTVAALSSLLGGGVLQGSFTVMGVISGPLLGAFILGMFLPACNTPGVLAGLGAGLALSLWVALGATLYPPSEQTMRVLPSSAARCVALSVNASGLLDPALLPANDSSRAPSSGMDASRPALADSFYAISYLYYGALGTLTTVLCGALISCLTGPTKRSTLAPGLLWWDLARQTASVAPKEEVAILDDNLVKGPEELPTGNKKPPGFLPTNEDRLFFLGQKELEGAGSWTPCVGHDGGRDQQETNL
Type: cell-based

- IC50: 740 nM
SMILES: F[B-](F)(F)F [tetrafluoroborate]
